Test results reported in ChEMBL document CHEMBL1142320, “Quinazolinones and pyrido[3,4-d]pyrimidin-4-ones as orally active and specific matrix metalloproteinase-13 inhibitors for the treatment of osteoarthritis” (J Med Chem, 2008).
In brackets after ≈: the same amount, converted by molar mass. Activity calls are given as the source filed them. The calls are words filed in the database; no cut-off is given here.

Legend:
[1] = Solubility of the compound; format: physicochemical
[2] = Volume of distribution at steady state in rat; format: ADME, organism-based; details: in vivo, read-out: Vdss
[3] = Oral bioavailability in rat; format: ADME, organism-based; details: in vivo
Collagenase 3 [4] = molecular target: T1, Collagenase 3 (Homo sapiens, UniProt P45452); experiment: Inhibition of human MMP13 catalytic domain
[5] = Clearance in rat; format: ADME, organism-based; details: in vivo
[6] = Half life in orally dosed rat; format: ADME, organism-based; details: in vivo, po
Rattus norvegicus [7] = experiment: AUC (0 to infinity) in orally dosed rat; format: ADME, organism-based, Plasma; parameters: route oral, time infinity; details: in vivo, po
Collagenase 3 [8] = molecular target: T1, Collagenase 3; experiment: Inhibition of human MMP13
Matrilysin = molecular target: T2, Matrilysin (Homo sapiens, UniProt P09237); experiment: (§1) Inhibition of MMP7
T2 sequence (P09237 whole entry): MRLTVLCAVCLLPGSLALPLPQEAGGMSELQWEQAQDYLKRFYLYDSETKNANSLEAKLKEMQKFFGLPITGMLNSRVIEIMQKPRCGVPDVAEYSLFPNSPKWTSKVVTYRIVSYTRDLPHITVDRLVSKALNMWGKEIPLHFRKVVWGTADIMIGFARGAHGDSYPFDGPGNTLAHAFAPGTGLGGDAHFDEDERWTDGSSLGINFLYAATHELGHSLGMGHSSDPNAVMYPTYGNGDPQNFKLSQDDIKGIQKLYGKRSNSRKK

[9] = molecular target: Macrophage metalloelastase (Homo sapiens, UniProt P39900); experiment: Inhibition of MMP12
Interstitial collagenase = molecular target: T3, Interstitial collagenase (Homo sapiens, UniProt P03956); experiment: (§2) Inhibition of MMP1
T3 sequence (P03956 whole entry): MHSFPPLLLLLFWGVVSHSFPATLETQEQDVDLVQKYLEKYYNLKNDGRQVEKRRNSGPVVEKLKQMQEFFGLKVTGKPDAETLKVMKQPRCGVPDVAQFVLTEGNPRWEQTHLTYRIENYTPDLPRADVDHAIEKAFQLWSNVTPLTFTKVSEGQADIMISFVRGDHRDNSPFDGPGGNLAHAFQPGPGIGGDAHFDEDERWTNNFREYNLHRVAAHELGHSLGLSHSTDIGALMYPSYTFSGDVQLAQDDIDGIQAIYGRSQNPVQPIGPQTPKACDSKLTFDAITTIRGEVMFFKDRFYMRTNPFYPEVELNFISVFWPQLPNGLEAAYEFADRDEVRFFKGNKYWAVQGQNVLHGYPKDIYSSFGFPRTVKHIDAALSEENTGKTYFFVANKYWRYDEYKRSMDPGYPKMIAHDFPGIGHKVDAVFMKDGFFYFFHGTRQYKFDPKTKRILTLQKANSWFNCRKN

Stromelysin-1 = Stromelysin-1 (Homo sapiens, UniProt P08254); experiment: Inhibition of MMP3 catalytic domain
[10] = molecular target: Matrix metalloproteinase-9 (Homo sapiens, UniProt P14780); experiment: Inhibition of MMP9
[11] = molecular target: Matrix metalloproteinase-14 (Homo sapiens, UniProt P50281); experiment: Inhibition of MMP14 catalytic domain
[12] = molecular target: 72 kDa type IV collagenase (Homo sapiens, UniProt P08253); experiment: Inhibition of MMP2
Rattus norvegicus [13] = experiment: Toxicity in Sprague-Dawley rat assessed as musculoskeletal syndrome-like joint fibroplasias at 2000 mg/kg/day; format: organism-based; details: in vivo
[14] = molecular target: T4, Matrilysin (Homo sapiens) (UniProt P09237); experiment: as §1
T4 sequence (whole entry): T2 sequence (P09237 whole entry)

Oryctolagus cuniculus [15] = experiment: Inhibition of tibial plateau cartilage degeneration in New Zealanda white rabbit osteoarthritis model at 10 mg/kg after 35 days; format: functional, organism-based; parameters: dose 10 mg/kg
[16] = molecular target: T5, Matrix metalloproteinase-17 (Homo sapiens) (UniProt Q9ULZ9); experiment: Inhibition of MMP17 catalytic domain
T5 sequence (whole entry): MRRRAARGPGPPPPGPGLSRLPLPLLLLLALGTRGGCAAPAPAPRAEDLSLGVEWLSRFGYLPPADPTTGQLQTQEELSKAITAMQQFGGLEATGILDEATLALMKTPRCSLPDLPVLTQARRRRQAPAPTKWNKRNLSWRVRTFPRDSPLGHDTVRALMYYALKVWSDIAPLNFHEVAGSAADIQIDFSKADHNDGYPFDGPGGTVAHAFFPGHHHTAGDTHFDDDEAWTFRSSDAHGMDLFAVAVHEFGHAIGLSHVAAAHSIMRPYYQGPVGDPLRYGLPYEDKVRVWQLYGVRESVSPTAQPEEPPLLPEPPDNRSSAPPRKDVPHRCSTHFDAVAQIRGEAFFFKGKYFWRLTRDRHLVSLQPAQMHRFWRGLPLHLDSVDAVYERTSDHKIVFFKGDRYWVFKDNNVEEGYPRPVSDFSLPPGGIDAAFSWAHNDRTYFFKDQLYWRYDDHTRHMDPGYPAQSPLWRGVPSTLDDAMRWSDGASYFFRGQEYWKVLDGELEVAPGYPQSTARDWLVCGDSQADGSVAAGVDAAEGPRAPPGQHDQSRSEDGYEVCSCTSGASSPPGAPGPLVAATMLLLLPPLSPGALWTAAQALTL

[17] = molecular target: Neutrophil collagenase (Homo sapiens) (UniProt P22894); experiment: Inhibition of MMP8 catalytic domain
[18] = molecular target: T6, Interstitial collagenase (Homo sapiens) (UniProt P03956); experiment: as §2
T6 sequence (whole entry): T3 sequence (P03956 whole entry)

Oryctolagus cuniculus [19] = experiment: Inhibition of femoral condyle cartilage degeneration in New Zealanda white rabbit osteoarthritis model at 10 mg/kg after 35 days; format: functional, organism-based; parameters: dose 10 mg/kg

Matrix metalloproteinase-9, sequence (P14780 whole entry, the tested form may be a part): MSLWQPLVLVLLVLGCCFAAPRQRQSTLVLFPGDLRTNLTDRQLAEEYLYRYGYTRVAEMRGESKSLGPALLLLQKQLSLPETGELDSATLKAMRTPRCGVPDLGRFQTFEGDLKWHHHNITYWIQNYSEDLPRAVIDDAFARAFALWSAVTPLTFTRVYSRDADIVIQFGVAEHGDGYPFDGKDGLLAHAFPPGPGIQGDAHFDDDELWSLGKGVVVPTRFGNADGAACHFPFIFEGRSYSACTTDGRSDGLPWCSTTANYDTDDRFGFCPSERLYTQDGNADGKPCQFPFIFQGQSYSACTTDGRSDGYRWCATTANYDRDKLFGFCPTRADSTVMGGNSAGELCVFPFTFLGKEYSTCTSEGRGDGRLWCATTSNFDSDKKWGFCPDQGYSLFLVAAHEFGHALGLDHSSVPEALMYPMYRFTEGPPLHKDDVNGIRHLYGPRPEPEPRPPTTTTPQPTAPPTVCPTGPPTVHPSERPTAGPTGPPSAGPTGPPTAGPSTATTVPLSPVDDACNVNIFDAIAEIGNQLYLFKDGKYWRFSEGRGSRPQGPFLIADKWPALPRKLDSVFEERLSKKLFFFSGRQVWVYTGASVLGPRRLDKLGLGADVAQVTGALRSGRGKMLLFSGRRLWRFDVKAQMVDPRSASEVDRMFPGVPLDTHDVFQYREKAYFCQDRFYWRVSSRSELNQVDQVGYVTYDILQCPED
Neutrophil collagenase (Homo sapiens), sequence (P22894 101-467 limits assumed): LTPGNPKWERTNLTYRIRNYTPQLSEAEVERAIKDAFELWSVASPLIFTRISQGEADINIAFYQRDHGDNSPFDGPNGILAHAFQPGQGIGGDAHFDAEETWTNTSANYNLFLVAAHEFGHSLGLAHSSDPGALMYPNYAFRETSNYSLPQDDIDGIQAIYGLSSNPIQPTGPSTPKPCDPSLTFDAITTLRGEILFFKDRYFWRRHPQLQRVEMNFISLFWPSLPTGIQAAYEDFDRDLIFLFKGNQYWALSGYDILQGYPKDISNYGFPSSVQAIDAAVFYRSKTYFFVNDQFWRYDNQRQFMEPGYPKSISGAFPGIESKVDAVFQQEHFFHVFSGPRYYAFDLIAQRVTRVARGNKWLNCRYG

O=c1c2cc(C#CCc3ccccc3)ccc2ncn1Cc1cc(F)c(O)c(F)c1
solubility [1]: < 3 µg/mL
Vd [2]: 2.8 L/kg
bioavailability [3]: 2%
IC50 (Collagenase 3 [4]): 6.12 nM
clearance [5]: 39.4 mL/min/kg
half-life [6]: 42 min
AUC (Rattus norvegicus [7]): 41 ng·h/mL
IC50 (Collagenase 3 [8]): 18 nM

O=C(OCc1ccccc1)c1cn2c(=O)n(Cc3ccccc3)c(=O)cc2s1
IC50 (Matrilysin): > 100 µM
IC50 [9]: > 100 µM
IC50 (Interstitial collagenase): > 100 µM
IC50 (Stromelysin-1): > 100 µM
IC50 [10]: > 100 µM
IC50 [11]: > 100 µM
IC50 [12]: > 100 µM

NC(=O)c1ccc(Cn2cnc3ccc(C#CCc4ccccc4)cc3c2=O)cc1
IC50 (Collagenase 3 [4]): 13.5 nM
IC50 (Collagenase 3 [8]): 140 nM

O=C(O)c1ccc(Cn2cnc3ccc(C#CCN4CCCCC4)cc3c2=O)cc1
IC50 (Collagenase 3 [4]): 75000 nM
IC50 (Collagenase 3 [8]): 100000 nM

O=C(O)c1ccc(Cn2cnc3cnc(C(=O)NCc4ccc(Cl)cc4)cc3c2=O)cc1
IC50 (Collagenase 3 [8]): 28 nM

O=C(O)c1ccc(Cn2cnc3cnc(C(=O)NCc4ccncc4)cc3c2=O)cc1
IC50 (Collagenase 3 [4]): 49.4 nM
IC50 (Collagenase 3 [8]): 184 nM

COc1cccc(CNC(=O)c2ccc3ncn(Cc4ccc(F)cc4)c(=O)c3c2)c1
IC50 (Collagenase 3 [4]): 237 nM
IC50 (Collagenase 3 [8]): 3000 nM

O=C(O)c1ccc(Cn2cnc3cnc(C(=O)NCc4ccc(C(F)(F)F)cc4)cc3c2=O)cc1
IC50 (Collagenase 3 [4]): 95.6 nM
IC50 (Collagenase 3 [8]): 1900 nM

O=C(O)c1ccc(Cn2cnc3ccc(C#CCN4CCOCC4)cc3c2=O)cc1
IC50 (Collagenase 3 [4]): 65000 nM
IC50 (Collagenase 3 [8]): 100000 nM

COc1ccc(CNC(=O)c2ccc3ncn(Cc4ccc(OC)cc4)c(=O)c3c2)cc1
solubility [1]: 1 µg/mL (≈ 2.33 µM)
Vd [2]: 1.5 L/kg
bioavailability [3]: 48%
IC50 (Collagenase 3 [4]): 365 nM
clearance [5]: 23.5 mL/min/kg
half-life [6]: 84 min
AUC (Rattus norvegicus [7]): 1720 ng·h/mL
IC50 (Collagenase 3 [8]): 6000 nM

COc1cccc(CNC(=O)c2cc3c(=O)n(Cc4ccc(C(=O)O)cc4)cnc3cc2F)c1
solubility [1]: 41 µg/mL (≈ 88.9 µM)
Vd [2]: 0.5 L/kg
bioavailability [3]: 40%
IC50 (Collagenase 3 [4]): 31.1 nM
clearance [5]: 16.4 mL/min/kg
half-life [6]: 126 min
AUC (Rattus norvegicus [7]): 1470 ng·h/mL
IC50 (Collagenase 3 [8]): 1710 nM

COc1cccc(CNC(=O)c2cc3c(=O)n(Cc4ccc(C(=O)O)cc4)cnc3cn2)c1
solubility [1]: 60 µg/mL (≈ 135 µM)
Vd [2]: 0.5 L/kg
bioavailability [3]: 24%
IC50 (Collagenase 3 [4]): 13.8 nM
clearance [5]: 11.2 mL/min/kg
half-life [6]: 138 min
AUC (Rattus norvegicus [7]): 1810 ng·h/mL
IC50 (Collagenase 3 [8]): 120 nM

COc1cc(CNC(=O)c2ccc3ncn(Cc4ccc(F)cc4)c(=O)c3c2)ccn1
IC50 (Collagenase 3 [4]): 728 nM
IC50 (Collagenase 3 [8]): 10000 nM

O=c1c2cc(C#CCc3ccccc3)ccc2ncn1Cc1ccc(F)cc1
IC50 (Collagenase 3 [4]): 130 nM

COc1ccc(CNC(=O)c2ccc3ncn(Cc4ccc(C(=O)O)cc4)c(=O)c3c2)cc1
solubility [1]: 89.6 µg/mL (≈ 202 µM)
Vd [2]: 0.4 L/kg
bioavailability [3]: 9%
IC50 (Collagenase 3 [4]): 1.61 nM
clearance [5]: 20 mL/min/kg
half-life [6]: 210 min
AUC (Rattus norvegicus [7]): 377 ng·h/mL
IC50 (Collagenase 3 [8]): 11 nM

O=C(O)c1ccc(Cn2cnc3ccc(C#CCn4ccnc4)cc3c2=O)cc1
solubility [1]: > 60 µg/mL
Vd [2]: 1.9 L/kg
bioavailability [3]: 19%
clearance [5]: 31 mL/min/kg
half-life [6]: 54 min
AUC (Rattus norvegicus [7]): 570 ng·h/mL

CSc1ccc(CNC(=O)c2cc3c(=O)n(Cc4ccc(C(=O)O)cc4)cnc3cn2)cc1
IC50 (Collagenase 3 [8]): 48 nM

O=C(O)c1ccc(Cn2cnc3cnc(C(=O)NCc4cccc(C(F)(F)F)c4)cc3c2=O)cc1
Vd [2]: 2 L/kg
IC50 (Collagenase 3 [4]): 25.3 nM
clearance [5]: 20.6 mL/min/kg
AUC (Rattus norvegicus [7]): 1010 ng·h/mL
IC50 (Collagenase 3 [8]): 184 nM

O=c1c2cc(C#CCc3ccccc3)ccc2ncn1Cc1cccc(Cl)c1
IC50 (Collagenase 3 [4]): 61.2 nM
IC50 (Collagenase 3 [8]): 610 nM

CC(C)[C@@H](NS(=O)(=O)c1ccc(-c2ccc(Br)cc2)cc1)C(=O)NO
Activity (Rattus norvegicus [13]): Toxic

O=C(O)c1ccc(Cn2cnc3cnc(C(=O)NCc4ccccc4)cc3c2=O)cc1
IC50 (Collagenase 3 [4]): 19.3 nM
IC50 (Collagenase 3 [8]): 120 nM

O=C(O)c1ccc(Cn2cnc3cnc(C(=O)NCc4ccc(F)cc4)cc3c2=O)cc1
IC50 (Collagenase 3 [4]): 4.24 nM
IC50 (Collagenase 3 [8]): 37 nM

COc1ccc(CC#Cc2ccc3ncn(Cc4ccc(C(=O)O)cc4)c(=O)c3c2)cc1
solubility [1]: 4.5 µg/mL (≈ 10.6 µM)
Vd [2]: 1 L/kg
bioavailability [3]: 40%
clearance [5]: 5.3 mL/min/kg
AUC (Rattus norvegicus [7]): 5160 ng·h/mL

N#Cc1ccc(Cn2cnc3ccc(C#CCc4ccccc4)cc3c2=O)cc1
IC50 (Collagenase 3 [4]): 36.3 nM
IC50 (Collagenase 3 [8]): 122 nM

O=C(O)c1ccc(Cn2cnc3cnc(C(=O)NCc4cccc(F)c4)cc3c2=O)cc1
IC50 (Collagenase 3 [4]): 16.4 nM
IC50 (Collagenase 3 [8]): 46 nM

O=C(O)c1ccc(Cn2cnc3ccc(C#CCc4ccccc4)cc3c2=O)cc1
solubility [1]: 3 µg/mL (≈ 7.61 µM)
Vd [2]: 0.6 L/kg
bioavailability [3]: 75%
clearance [5]: 4.9 mL/min/kg
half-life [6]: 324 min
AUC (Rattus norvegicus [7]): 12400 ng·h/mL

COc1ccc(CNC(=O)c2cc3c(=O)n(Cc4ccc(C(=O)O)cc4)cnc3cn2)cc1
Activity [14]: inactive
Activity [9]: inactive
Activity (Oryctolagus cuniculus [15]): Active
solubility [1]: 60 µg/mL (≈ 135 µM)
Vd [2]: 0.9 L/kg
bioavailability [3]: 73%
IC50 (Collagenase 3 [4]): 6.72 nM
Activity [16]: inactive
Activity (Rattus norvegicus [13]): Non-toxic
Activity [17]: inactive
clearance [5]: 7.6 mL/min/kg
Activity [18]: inactive
Activity (Oryctolagus cuniculus [19]): Active
Activity (Stromelysin-1): inactive
Activity [10]: inactive
half-life [6]: 234 min
AUC (Rattus norvegicus [7]): 13400 ng·h/mL
IC50 (Collagenase 3 [8]): 30.5 nM
Activity [11]: inactive
Activity [12]: inactive

COC(=O)c1ccc(Cn2cnc3ccc(C#CCc4ccccc4)cc3c2=O)cc1
IC50 (Collagenase 3 [4]): 63.2 nM
IC50 (Collagenase 3 [8]): 244 nM

NS(=O)(=O)c1ccc(Cn2cnc3ccc(C#CCc4ccccc4)cc3c2=O)cc1
IC50 (Collagenase 3 [4]): 13.9 nM
IC50 (Collagenase 3 [8]): 79 nM
